The results in this text go back to paper PMC7026589, “Sensitive CometChip assay for screening potentially carcinogenic DNA adducts by trapping DNA repair intermediates” (Nucleic Acids Research, 2019).

SMILES strings stand for the structures. Read-outs that look alike come from different tables or passages of the source.

Series [1] concerns primary mouse hepatocytes. The settings on record: WT primary mouse hepatocytes; absence of HU/AraC; 24 h. On the procedure:
(§1) Cells encapsulated in CometChip were lysed in the alkaline lysis buffer overnight at 4°C. The nuclei were unwound in the alkaline unwinding buffer for 40 min at 4°C, and the DNA was electrophoresed in the same buffer at the same temperature for 30 min at 1 V/cm and ∼300 mA. The CometChip was then washed three times in neutralization buffer by submerging for 5 min each time.
(§2) The DNA on CometChip was stained for 15 min at room temperature with 1× of SYBR™ Gold diluted in PBS, protected from light. Fluorescent images of the comets were captured at 40× magnification using an epifluorescence microscope (Nikon Eclipse 80i, Nikon Instruments, Inc., Melville, NY, USA) with a 480 nm excitation filter. Image acquisition was achieved by automatic scanning using a motorized XY stage. Comet images were automatically analyzed using Guicometanalyzer, a custom software developed in MATLAB (The MathWorks Inc., Natick, MA, USA) as previously described ([15]). For each condition, 100 comets or more were analysed. […]
(§3) Primary mouse hepatocytes were obtained from 10 to 14 weeks old C57Bl6 mice using a standard two-step collagenase liver perfusion procedure with minor changes ([80],[81]). […] Cell viability and cell number were analyzed using an automated Trypan Blue exclusion system [Vi-CELL™ cell counter (Beckman Coulter Life Sciences, Brea, CA)]. […]

Another series deals with Xpa−/− mouse hepatocytes. The conditions noted are these: presence of HU/AraC, 24 h, compared with WT. On the procedure: as §1, §2, §3
The target in series [2] is T1, CYP1A2 (Homo sapiens, UniProt P05177). It counts as cell-based. Also on record: endogenous in cells. The conditions noted are these: HepaRG; B[a]P 24 h. On the procedure:
(§4) The CYP450-Glo™ CYP3A4 assay with luciferin-IPA (V9001) and the CYP450-Glo™ CYP1A2 assay with luciferin-1A2 (V8421) were purchased from Promega, Madison, WI. The activity levels of CYP3A4 and CYP1A2 in cells were measured according to the manufacturer's protocol for non-lytic cell-based assays. Luminescent signals were recorded using a SpectraMax M2e microplate reader (Molecular Devices, Sunnyvale, CA, USA). Control wells with no cells were included to obtain background luminescence. The net signal for each sample was obtained by subtracting the background luminescence value.
(§5) CYP3A4 or CYP1A2 activity per cell can be obtained by normalizing CYP450-Glo™ values with cell numbers. After a sample was analyzed for CYP3A4 or CYP1A2 activity, the CTG® assay was performed to obtain an estimate of the number of viable cells in the sample. The result from CYP450-Glo™ was then divided by the CTG® value to obtain the average CYP3A4 or CYP1A2 activity per cell.

The target in series [3] is T1, CYP1A2. Format: cell-based. Also on record: endogenous in cells; host or cells: HepG2. The conditions noted are these: HepG2; B[a]P 24 h. On the procedure:
as §4, §5

For a further series, the system named is HepaRG™ cells.
Description: Cryopreserved HepaRG™ (HPRGC10), a terminally differentiated hepatic cell line, was purchased from ThermoFisher Scientific (Waltham, MA). HepaRG™ was thawed and cultured according to manufacturer's instructions. Briefly, the general purpose working medium was WEM supplemented with 1X GlutaMAX™ and 1X HepaRG™ Thaw, Plate, & General Purpose Medium Supplement. The metabolism working medium was WEM supplemented with 1X GlutaMAX™ and HepaRG™ Maintenance/Metabolism Medium Supplement. HepaRG™ cells were thawed in the general purpose working medium and plated in a 96-well plate coated with collagen I at 100 000 cells/well. One day after plating, the general purpose working medium was changed to the metabolism working medium. The metabolism working medium was renewed on day 4 and day 6 after plating. On day 7, the cells were treated in the metabolism working medium.
To load cells into microwells, ∼2000–200 000 cells in suspension were placed into each macrowell, and the chip was incubated at 37°C in the presence of 5% CO2 for 15 min. Cell were loaded into microwells by gravity, and excess cells were then washed off with PBS by shear force. The chip was covered with a layer of overlay agarose (1% w/v low-melting point agarose solution in PBS, kept molten at 43°C until use). For complete gelation of the overlay agarose, the chip was kept at room temperature for two minutes followed by 2 min at 4°C.
The alkaline comet assay was performed as previously ([15],[79]). Sodium chloride (NaCl, 7581), disodium EDTA (Na2EDTA, 4931), and sodium hydroxide pellets (NaOH, 7708) were purchased from VWR, Radnor, PA. Trizma® base (T1503), Trizma® HCl (T5941) and Triton X-100 (X-100) were obtained from MilliporeSigma, St. Louis, MO. 10 000× SYBR™ Gold nucleic acid gel stain was obtained from ThermoFisher Scientific, Waltham, MA.
The alkaline lysis buffer (pH ∼ 10) was a solution of 2.5 M NaCl, 100 mM Na2EDTA, 10 mM Trizma® base, and 1% (v/v) Triton X-100 dissolved in deionized H2O (dI H2O). […] The neutralization buffer (pH ∼ 7.5) was prepared by dissolving Trizma® HCl in distilled H2O to a final concentration of 0.4 M.
as §1
The DNA on CometChip was stained for 15 min at room temperature with 1× of SYBR™ Gold diluted in PBS, protected from light. Fluorescent images of the comets were captured at 40× magnification using an epifluorescence microscope (Nikon Eclipse 80i, Nikon Instruments, Inc., Melville, NY, USA) with a 480 nm excitation filter. Image acquisition was achieved by automatic scanning using a motorized XY stage. Comet images were automatically analyzed using Guicometanalyzer, a custom software developed in MATLAB (The MathWorks Inc., Natick, MA, USA) as previously described ([15]). For each condition, 100 comets or more were analysed. Outputs from Guicometanalyzer were processed and imported to a spreadsheet (Microsoft Excel, Microsoft Office Suite 2016) using Comet2Excel, an in-house software developed in Python (Python Software Foundation, Python version 2.7.10). Software is freely available upon request.
For this experiment, the comets were analysed using Trevigen® Comet Analysis Software.
A vehicle control condition was included by diluting DMSO in cell culture medium to get a final concentration of 0.5%. Cells were incubated with the test compound for 24 h at 37°C in the presence of 5% CO2.
HepaRG™ were incubated with the test compound for 24 h at 37°C in the presence of 5% CO2. A vehicle control (1% DMSO) was included.

T1 sequence (P05177 whole entry): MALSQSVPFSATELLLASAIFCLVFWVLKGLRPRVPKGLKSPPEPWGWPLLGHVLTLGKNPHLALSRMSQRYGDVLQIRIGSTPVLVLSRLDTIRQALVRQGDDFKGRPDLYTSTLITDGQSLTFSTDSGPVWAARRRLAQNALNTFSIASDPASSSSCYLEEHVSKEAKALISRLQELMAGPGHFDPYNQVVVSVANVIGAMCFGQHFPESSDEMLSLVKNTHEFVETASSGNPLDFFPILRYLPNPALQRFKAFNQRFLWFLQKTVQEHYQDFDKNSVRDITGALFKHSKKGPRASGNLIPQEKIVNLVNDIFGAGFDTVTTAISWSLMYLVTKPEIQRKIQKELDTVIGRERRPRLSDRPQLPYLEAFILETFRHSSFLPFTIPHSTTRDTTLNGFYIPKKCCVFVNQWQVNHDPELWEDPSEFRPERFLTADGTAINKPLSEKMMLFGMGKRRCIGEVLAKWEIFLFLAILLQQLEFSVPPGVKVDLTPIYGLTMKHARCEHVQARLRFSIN

Regarding `c1ccc2c(c1)cc1ccc3cccc4ccc2c1c34` [B[a]P, Benzo[a]pyrene], the “SSBs” value in series [1] was “significant, but relatively small, increase in SSBs”; with Xpa−/− mouse hepatocytes, “not significantly”. Also, the “CYP1A2 activity level (induction)” value on CYP1A2 [2] and at CYP1A2 [3] was “induced in a dose-dependent manner” in each case. Besides, in the series with HepaRG™ cells, the “Genotoxicity Alkaline CometChip HepaRG (+ HU + AraC) +/−” value was “+”. Also, in the series on HepaRG™ cells, the “Genotoxicity Alkaline CometChip HepaRG +/−” value is listed as “−”.
